From patent US20230323293A1, “EXPANSION CULTURE MEDIUM AND CULTURE METHOD FOR NEURAL CELLS” (INSTITUTE OF ZOOLOGY, CHINESE ACADEMY OF SCIENCES, priority 2020, published 2023) come the findings set out here.

For one assay, the system named is astrocytes. Briefly: Expansion experiment of astrocytes. The assay is classed as cell-based, human. Particulars: 10 μM, P2 to P6, versus control group. The method, then: (1) hESCs were cultured and differentiation was conducted until about 80% confluence. On the 0th day, the cells were dissociated with Dispase (1 U/mL), and the bottom cell mass was harvested and plated in an ultra-low adsorption 10 cm culture dish. • (2) From the 1st day, the neural induction was started by replacing with NIM medium supplemented with neural induction molecules 100 nM LDN193189 and 10 μM SB431542. […]

The next assay has as its system NSCs. In words: Proliferation of neural stem cells. It counts as cell-based, human. Particulars: 10 μM, P4 to P6. As for the experimental part: The differentiation method was referred to Tchieu et al., A Modular Platform for Differentiation of Human PSCs into All Major Ectodermal Lineages. 2017, Cell Stem Cell 21, 399-410.
NSCs were cultured with expansion medium after adherence, DMEM/F12 (1×, Gibco) supplemented with […] human (EGF) (R&D), […] (bFGF) (R&D), 5 μg/ml Heparin (Sigma), 2% B27 (Gibco), 1× GlutaMAX, and 10 μM Blebbistatin was added to the experimental group. Half of the culture medium was changed every day.

The next assay deals with microglial progenitors. In words: Proliferation of microglial progenitors. Particulars: 10 μM. It counts as cell-based. The method, then: • (1) On the 0th day, ESCs were digested with Accutase into single cells, counted and inoculated into a V-bottom 96-well plate at a concentration of 10,000/well, and cultured statically. • (2) From the 0th to 4th day, the medium was microglial induction medium: DMEM/F12, 20% KOSR, 1× Glutamax, 1×NEAA, 50 ng/ml BMP4, 50 ng/ml VEGF, 20 ng/ml SCF, 10 μM Y-27632. • (3) On the 4th day, the suspended EBs were subjected to adherent culture in a 6-well plate, the culture medium was changed on the 4th day and then the static culture was carried out until the 11th day. From the 4th to 11th day, the culture medium was microglial differentiation medium: X-VIVO15, 1× Glutamax, 25 ng/ml IL-34, 50 ng/ml M-CSF. At this stage, Blebbistatin was added at a concentration of 10 μM. • (4) On the 11th day, the single cells suspended in the medium were collected and counted, and the EBs were continued to be cultured with the microglial differentiation medium, and the suspended cells in the supernatant were collected every 7 days for a total of 3 collections. • (5) Maturation of microglial cells: The supernatant was discarded after centrifugation, the cells were resuspended in a microglial maturation medium and inoculated on Matrigel pre-coated culture plates. The microglial cells matured after being continuously cultured for 14 days. […]

The next assay deals with GABA progenitor cells. Briefly: Proliferation of GABA progenitor cells. The assay is classed as cell-based, human. The settings on record: 10 μM, P4 to P5, versus control group. The method, then: (1) hESCs were cultured and differentiation was conducted until about 80% confluence. On the 0th day, the cells were dissociated with Dispase (1 U/mL), and the bottom cell mass was harvested and spread on an ultra-low adsorption 10 cm culture dish.
(2) From the 1st day, the neural induction was started by using NIM medium supplemented with 100 nM LDN193189, 10 μM SB431542, and 2 μM XAV939. […]

Turning to `Cc1ccc2c(c1)C(=O)[C@]1(O)CCN(c3ccccc3)C1=N2` [Blebbistatin, (S)-(−)-Blebbistatin], in the assay with astrocytes, the “expansion ability of astrocytes” value is “significantly improved”. Besides, the “expansion of NSCs” value in the assay on NSCs is “significantly promoted the expansion of NSCs”. Also, the “proliferation of microglial progenitors and differentiation efficiency” value in the assay with microglial progenitors is “could promote the proliferation of microglial progenitors and improve the differentiation efficiency”. In addition, the “number of suspension cells collected” value in the assay with microglial progenitors (first two collections, versus control group) is reported as “increased significantly”. Besides, the “expansion ability of GABA progenitor cells” value with GABA progenitor cells is listed as “significantly improved”.
